Source: patent US20240000872A1, “NOVEL BACTERIOPHAGE THAT LYSES ACINETOBACTER GENUS BACTERIA HAVING RESISTANCE TO ANTIBIOTICS” (priority 2020, published 2024)

System: Acinetobacter baumannii strains
Assay: Antibiotic susceptibility test (CLSI disk diffusion test method, read per CLSI 2016); as to antibiotic susceptibility S/I/R: key: ‘S’ means susceptible; ‘I’ means intermediate; ‘R’ means resistant; as to susceptibility category (S/I/R): key: ‘S’ means susceptible; ‘I’ means intermediate; ‘R’ means resistant
Assay type: cell-based
Parameters: antibiotic susceptibility test value / susceptibility test value (number given before S/I/R) / antibiotic susceptibility value: unit not given here

## ampicillin-sulbactam
Host strain YMC17/01/R2812
  susceptibility test value (number given before S/I/R): 32
Host strain YMC17/02/B14
  antibiotic susceptibility S/I/R: R
  antibiotic susceptibility value: 32
  susceptibility category (S/I/R): R
  susceptibility test value (number given before S/I/R): 32
Host strain YMC17/02/B87
  antibiotic susceptibility value: 16
  susceptibility category (S/I/R): I
  susceptibility test value (number given before S/I/R): 16
Host strain YMC17/02/B721
  antibiotic susceptibility S/I/R: R
  antibiotic susceptibility value: 32
  susceptibility category (S/I/R): R
  susceptibility test value (number given before S/I/R): 32
Host strain YMC17/02/B4039
  antibiotic susceptibility S/I/R: R
  antibiotic susceptibility value: 32
  susceptibility category (S/I/R): R
  susceptibility test value (number given before S/I/R): 32
Host strain YMC17/02/B4520
  antibiotic susceptibility S/I/R: R
  antibiotic susceptibility value: 32
  susceptibility category (S/I/R): R
  susceptibility test value (number given before S/I/R): 32
Host strain YMC17/02/B4864
  antibiotic susceptibility S/I/R: S
  antibiotic susceptibility value: 2
  susceptibility category (S/I/R): S
  susceptibility test value (number given before S/I/R): 2
Host strain YMC17/02/B8414
  antibiotic susceptibility value: 16
  susceptibility category (S/I/R): I
  susceptibility test value (number given before S/I/R): 16
Host strain YMC17/02/P523
  antibiotic susceptibility value: 16
  susceptibility category (S/I/R): I
  susceptibility test value (number given before S/I/R): 16
Host strain YMC17/02/R541
  antibiotic susceptibility S/I/R: R
  antibiotic susceptibility value: 32
  susceptibility category (S/I/R): R
  susceptibility test value (number given before S/I/R): 32
Host strain YMC17/02/R2392
  antibiotic susceptibility S/I/R: R
  antibiotic susceptibility value: 32
  susceptibility category (S/I/R): R
  susceptibility test value (number given before S/I/R): 32
Host strain YMC17/03/B4730
  antibiotic susceptibility value: 16
  susceptibility category (S/I/R): I
  susceptibility test value (number given before S/I/R): 16
Host strain YMC17/03/B5000
  antibiotic susceptibility S/I/R: R
  antibiotic susceptibility value: 32
  susceptibility category (S/I/R): R
  susceptibility test value (number given before S/I/R): 32
Host strain YMC17/03/P971
  antibiotic susceptibility S/I/R: S
  antibiotic susceptibility value: 8
  susceptibility category (S/I/R): S
  susceptibility test value (number given before S/I/R): 8
Host strain YMC17/03/R348
  antibiotic susceptibility value: 16
  susceptibility category (S/I/R): I
  susceptibility test value (number given before S/I/R): 16
Host strain YMC17/03/R585
  antibiotic susceptibility S/I/R: R
  antibiotic susceptibility value: 32
  susceptibility category (S/I/R): R
  susceptibility test value (number given before S/I/R): 32
Host strain YMC17/03/R1888
  antibiotic susceptibility S/I/R: S
  antibiotic susceptibility value: 8
  susceptibility category (S/I/R): S
  susceptibility test value (number given before S/I/R): 8
Host strain YMC17/03/R3279
  antibiotic susceptibility value: 16
  susceptibility category (S/I/R): I
  susceptibility test value (number given before S/I/R): 16
Host strain YMC17/03/R4077
  antibiotic susceptibility value: 16
  susceptibility category (S/I/R): I
  susceptibility test value (number given before S/I/R): 16
Host strain YMC17/03/R4607
  antibiotic susceptibility value: 16
  susceptibility category (S/I/R): I
  susceptibility test value (number given before S/I/R): 16
Host strain YMC17/04/R488
  antibiotic susceptibility value: 16
  susceptibility category (S/I/R): I
  susceptibility test value (number given before S/I/R): 16
Host strain YMC17/04/R640
  antibiotic susceptibility value: 16
  susceptibility category (S/I/R): I
  susceptibility test value (number given before S/I/R): 16
Host strain YMC/17/05/R1095
  antibiotic susceptibility value: 16
  susceptibility category (S/I/R): I
  susceptibility test value (number given before S/I/R): 16
